Assay: xn = mol fraction of the nth substance listed
Conditions: 100 kPa

O + CC(=O)[O-].CC[n+]1ccn(C)c1
x2 = 0
Conditions	speed of sound [m/s]
293.15 K	1485
298.15 K	1499
303.15 K	1511
333.15 K	1551
343.15 K	1554

CC(=O)[O-].CC[n+]1ccn(C)c1 + O
Conditions	electrical conductivity [S/m]	speed of sound [m/s]
293.15 K, x1 = 0.105	–	1942
293.15 K, x1 = 0.1988	–	1959
293.15 K, x1 = 0.2003	1.59	–
293.15 K, x1 = 0.3952	0.833	–
293.15 K, x1 = 0.4445	–	1852
293.15 K, x1 = 0.5602	–	1776
293.15 K, x1 = 0.5984	0.49	–
293.15 K, x1 = 0.7375	–	1778
293.15 K, x1 = 0.8521	–	1762
293.15 K, x1 = 0.9481	0.228	–
293.15 K, x2 = 0.0174	–	1753
298.15 K, x1 = 0.4445	–	1839
298.15 K, x1 = 0.5602	–	1764
298.15 K, x1 = 0.7375	–	1765
298.15 K, x1 = 0.8521	–	1749
298.15 K, x1 = 0.9481	0.301	–
298.15 K, x1 = 1	0.299	1740
298.15 K, x2 = 0.0174	–	1740
303.15 K, x1 = 0.105	–	1917
303.15 K, x1 = 0.1988	–	1932
303.15 K, x1 = 0.3952	1.28	–
303.15 K, x1 = 0.4445	–	1827
303.15 K, x1 = 0.5602	–	1753
303.15 K, x1 = 0.5984	0.776	–
303.15 K, x1 = 0.7375	–	1753
303.15 K, x1 = 0.8521	–	1736
303.15 K, x1 = 0.9481	0.392	–
303.15 K, x1 = 1	0.391	1727
303.15 K, x2 = 0.0174	–	1726
313.15 K, x1 = 0.1988	–	1904
313.15 K, x1 = 0.2003	3.32	–
313.15 K, x1 = 0.3952	1.84	–
313.15 K, x1 = 0.4445	–	1803
313.15 K, x1 = 0.5602	–	1729
313.15 K, x1 = 0.5984	1.16	–
313.15 K, x1 = 0.7375	–	1729
313.15 K, x1 = 0.7987	0.819	–
313.15 K, x1 = 0.8521	–	1712
313.15 K, x1 = 0.9481	0.627	–
313.15 K, x1 = 1	0.625	1701
313.15 K, x2 = 0.0174	–	1701
323.15 K, x1 = 0.105	–	1864
323.15 K, x1 = 0.2003	4.45	–
323.15 K, x1 = 0.3952	2.52	–
323.15 K, x1 = 0.4445	–	1779
323.15 K, x1 = 0.5602	–	1707
323.15 K, x1 = 0.7375	–	1705
323.15 K, x1 = 0.7987	1.19	–
323.15 K, x1 = 0.8521	–	1687
323.15 K, x1 = 0.9481	0.934	–
323.15 K, x1 = 1	0.929	1676
323.15 K, x2 = 0.0174	–	1676
333.15 K, x1 = 0.105	–	1846
333.15 K, x1 = 0.1988	–	1848
333.15 K, x1 = 0.2003	5.75	–
333.15 K, x1 = 0.3952	3.32	–
333.15 K, x1 = 0.5602	–	1690
333.15 K, x1 = 0.5984	2.19	–
333.15 K, x1 = 0.7375	–	1682
333.15 K, x1 = 0.7987	1.64	–
333.15 K, x1 = 0.8521	–	1664
343.15 K, x1 = 0.105	–	1809
343.15 K, x1 = 0.4445	–	1731
343.15 K, x1 = 0.5602	–	1668
343.15 K, x1 = 0.7375	–	1659
343.15 K, x1 = 0.9481	1.76	–
343.15 K, x2 = 0.0174	–	1629
353.15 K, x1 = 0.9481	2.28	–
353.15 K, x1 = 1	2.28	–

Reference: a compilation of properties of binary mixtures (doi:10.1016/j.molliq.2019.111925)
